In one data set the test system is Anas platyrhynchos. The note with it: reproductive.
For the next data set, the system named is Apis mellifera. The following applies: acute, mortality.
The next data set deals with Colinus virginianus. The following applies: acute, oral, mortality.
Another data set concerns Cyprinus carpio. The following applies: acute; duration: 96 hours; mortality.
In a further data set the test system is Gammaridae. The following applies: chronic/long-term; duration: 28 days.
In a further data set the test system is Pimephales promelas. The note with it: chronic/long-term; duration: 32 days; growth.

Structures are written as SMILES. Converted amounts (≈) assume the structure as drawn. Some results are limits rather than exact numbers.

As to `Cn1cc(C(=O)Nc2cccc3c2[C@@H]2CC[C@H]3C2=C(Cl)Cl)c(C(F)F)n1` [Benzovindiflupyr], the NOEC with Anas platyrhynchos amounted to 25 mg/kg-day; in the data set on Gammaridae, 4.1 mg/kg; in the data set with Neomysis kadiakensis (chronic/long-term, duration: 28 days, reproduction) it was 0.0074 mg/L; in the data set with Pimephales promelas it was 0.00095 mg/L; with Pontoscolex corethrurus (chronic/long-term, duration: 8 weeks) it was 7.81 mg/kg. Moreover, the LD50 was above 100 µg/piece in the data set with Apis mellifera (dermal); above 109 µg/piece with Apis mellifera (oral, unspecified); 1320 mg/kg with Colinus virginianus; 55 mg/kg with Rattus norvegicus (acute, mortality). Further, the LC50 with Colinus virginianus (diet) was above 1170 mg/kg-day; in the data set on Cyprinus carpio it was 3.5 ng/mL (≈ 0.00879 µM); in the data set with Neomysis kadiakensis (acute, duration: 96 hours, mortality), 0.056 mg/L (≈ 0.141 µM); in the data set on Pontoscolex corethrurus (acute, duration: 14 days, mortality), 406 mg/kg. For the same molecule, the NOAEL (commonly the highest dose or exposure tested at which no adverse effect was seen) in the data set on Rattus norvegicus (acute, neurology) worked out at 10 mg/kg-day; in the data set with Rattus norvegicus (chronic) it was 6.8 mg/kg-day; in the data set on Rattus norvegicus (chronic, duration: 2 years, histopathology: nonneoplastic), 4.88 mg/kg-day; in the data set on Rattus norvegicus (reproduction developmental, M/F, reproduction), 6.8 mg/kg-day; in the data set on Rattus norvegicus (subchronic, duration: 90 days, oral, organ weight), 7.6 mg/kg-day.

For the origin of these results see EPA's ToxValDB 9.5 (doi:10.2903/j.efsa.2015.4043).
